Laboratory results: patent US20230080054A1 (ILDONG PHARMACEUTICAL CO., LTD., priority 2021, published 2023)

What was measured:
human ANO6 [1] = target: T1, human ANO6 (Homo sapiens, UniProt Q4KMQ2); assay: YFP quenching assay (ANO6 ion channel activity); type: cell-based; conditions: 10 μM ionomycin; for inhibition at 1 µM: test compound 1 μM, read-out: Inhibition Level 1 μM; for inhibition at 30 µM: test compound 30 μM, read-out: Inhibition Level 30 μM
T1 construct: expressed in transfected cells
T1 sequence (Q4KMQ2 1-931 isoform Q4KMQ2-2): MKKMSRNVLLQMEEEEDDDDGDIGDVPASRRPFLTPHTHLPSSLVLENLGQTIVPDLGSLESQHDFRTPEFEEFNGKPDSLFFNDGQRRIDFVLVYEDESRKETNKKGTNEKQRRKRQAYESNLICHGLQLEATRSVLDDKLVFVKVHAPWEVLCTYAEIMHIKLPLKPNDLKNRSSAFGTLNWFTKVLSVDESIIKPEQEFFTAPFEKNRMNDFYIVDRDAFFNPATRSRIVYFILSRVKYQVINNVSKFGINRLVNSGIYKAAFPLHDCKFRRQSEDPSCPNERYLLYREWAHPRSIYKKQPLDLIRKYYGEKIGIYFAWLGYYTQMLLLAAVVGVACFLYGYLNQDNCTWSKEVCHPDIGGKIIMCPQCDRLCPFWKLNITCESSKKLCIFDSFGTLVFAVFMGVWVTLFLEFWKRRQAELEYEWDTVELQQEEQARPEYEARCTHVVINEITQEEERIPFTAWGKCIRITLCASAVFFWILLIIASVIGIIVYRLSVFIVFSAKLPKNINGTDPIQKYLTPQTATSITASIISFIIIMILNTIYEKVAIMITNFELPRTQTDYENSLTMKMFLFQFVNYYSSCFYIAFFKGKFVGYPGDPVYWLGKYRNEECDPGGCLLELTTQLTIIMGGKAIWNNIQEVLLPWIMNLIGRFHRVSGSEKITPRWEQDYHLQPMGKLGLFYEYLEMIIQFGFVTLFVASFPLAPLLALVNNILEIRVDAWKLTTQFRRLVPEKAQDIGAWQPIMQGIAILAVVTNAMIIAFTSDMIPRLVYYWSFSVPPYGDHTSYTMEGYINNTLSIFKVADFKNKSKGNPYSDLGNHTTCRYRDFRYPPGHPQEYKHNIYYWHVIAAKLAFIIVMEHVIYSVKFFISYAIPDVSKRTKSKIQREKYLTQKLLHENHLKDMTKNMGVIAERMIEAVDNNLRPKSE
Description: Example 3: YFP Quenching Assay
1. Materials and Instruments
Ionomycin (Alomonelab cat. #I-700), FLUOstar Omega microplate reader (BMG Labtech, Ortenberg, Germany), and MARS Data Analysis Software (BMG Labtech)
Fisher rat thyroid (FRT) cells stably expressing human ANO6 (GenBank accession no. NP_001191732.1, provided by J. H. Nam, Dongguk University College of Medicine, Korea) and halide sensor mutant YFP-H148Q/I152L/F46L) were constructed and grown in Dulbecco's modified Eagle's medium Nutrient Mixture F-12 (DMEM/F-12) supplemented 10% FBS, 100 units/mL penicillin, 500 μg/mL hygromycin B and 100 μg/mL neomycin.
Fisher rat thyroid (FRT) cells stably expressing human ANO6 and halide sensor mutant YFP (H148Q/I152L/F46L) were seeded in black walled 96 well plates and incubated in a 37° C., 5% CO2 incubator to reach about 100% cell confluency. Then, each well of the 96 well plates were washed for several times with phosphate buffered saline (PBS), and 50 μL of PBS was added to each well. Test compounds (100× in DMSO) were added to each well to be 1% v/v DMSO. After incubation for 10 minutes in 40° C., the 96 well plates were transferred to a plate reader, and YFP fluorescence changed by SCN-introduced into cells through activated ANO6 were measured by the following steps.
(1) YFP fluorescence signals were recorded in every 0.4 seconds.
(2) Basal YFP fluorescence signals were recorded for 1 second.
(3) 140 mM SCN-(50 μL) containing 10 μM ionomycin was injected to each well, and YFP fluorescence signals were recorded.
The inhibitory activity (%) of each of the test compounds was obtained by the following steps.
(1) Background signals were subtracted from recording values, and the resulting values were converted to relative percentages. The values at 0 second were set to be 100%.
(2) Differences between the values at 3.6 seconds and those of at 7.6 seconds were calculated.
(3) In each row of 96 well plate, the inhibitory activity of each of the test compounds was calculated as percentages. The inhibitory activity of a negative control group to which neither compounds nor ionomycin were treated was set to be 100%, and the inhibitory activity of a positive control group to which ionomycin was treated and compounds were not treated was set to be 0%.
(4) The assay was performed in duplicate or triplicate, and the results were averaged.

human ANO6 [2] = target: T1, human ANO6; assay: LACT C2 assay (phosphatidylserine scramblase function assay); type: cell-based; conditions: FRT cells expressing human ANO6, 10 μM ionomycin; for inhibition at 0.1 µM: test compound 100 nM, read-out: Inhibition Level 100 nM; for inhibition at 1 µM: test compound 1 μM, read-out: Inhibition Level 1 μM
Method in brief: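 Inhibition was normalised between ionomycin-only (0%) and untreated (100%) wells, with triplicates averaged. Readout was background-corrected Lact-C2-GFP (500 nM) fluorescence from imaged cells. The cells were FRT cells stably expressing human ANO6, given compound at 1% DMSO for 10 min before a 10 min 10 μM ionomycin challenge.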

For `Cc1ccc(CNC(=O)c2cccc(Nc3cccc(-c4ccccc4)c3)c2)o1` [Compound 88, 3-({[1,1′-biphenyl]-3-yl}amino)-N-[(5-methylfuran-2-yl)methyl]benzamide], the inhibition at 1 µM (human ANO6 [1]) was < 30%.

In the case of `O=C(NCC1COC1)c1cccc(Nc2ccc(-c3ccccc3)nn2)c1` [Compound 35, N-[(oxetan-3-yl)methyl]-3-[(6-phenylpyridazin-3-yl)amino]benzamide], the inhibition at 1 µM (human ANO6 [1]) was < 30% and the inhibition at 30 µM (human ANO6 [1]) was ≥ 60%.

With `Cc1ccc(CNC(=O)c2cccc(Nc3ncc(-c4ccc5c(c4)OCO5)cn3)c2)o1` [Compound 103, 3-{[5-(2H-1,3-benzodioxol-5-yl)pyrimidin-2-yl]amino}-N-[(5-methylfuran-2-yl)methyl]benzamide] the inhibition at 1 µM (human ANO6 [1]) was < 30%.

For `Cc1ccc(CNC(=O)c2cccc(Nc3ccc(C4CCOC4)nn3)c2)o1` (stereo not drawn) [Compound 87, N-[(5-methylfuran-2-yl)methyl]-3-{[6-(oxolan-3-yl)pyridazin-3-yl]amino}benzamide], the inhibition at 1 µM (human ANO6 [1]) was < 30%.

`Cc1ccc(-c2ccc(Nc3cccc(C(=O)NCc4ccc(F)cc4)c3)nn2)cc1` [Compound A23] was tested, and the inhibition at 30 µM (human ANO6 [1]) was 30 to 60%.

For `Cc1ccc(CNC(=O)c2cccc(Nc3ccnc(-c4cccc(F)c4)n3)c2)o1` [Compound A21], the inhibition at 30 µM (human ANO6 [1]) was < 30%.

`CC(C)(C)NC(=O)c1cccc(Nc2ccc(-c3ccccc3)nn2)c1` [Compound 65, N-tert-butyl-3-[(6-phenylpyridazin-3-yl)amino]benzamide] gave an inhibition at 1 µM (human ANO6 [1]) of 30 to 60%.

`Cc1ccc(CNC(=O)c2cccc(Nc3ccc(C#N)nn3)c2)o1` [Compound 107, 3-[(6-cyanopyridazin-3-yl)amino]-N-[(5-methylfuran-2-yl)methyl]benzamide] was tested, and the inhibition at 1 µM (human ANO6 [1]) was < 30%.

With `O=C(NCCc1ccc2c(c1)OCO2)c1cccc(Nc2ncc(-c3ccccc3)cn2)c1` [Compound 106, N-[2-(2H-1,3-benzodioxol-5-yl)ethyl]-3-[(5-phenylpyrimidin-2-yl)amino]benzamide] the inhibition at 1 µM (human ANO6 [1]) was 30 to 60%.

For `O=C(NCC1CCOCC1)c1cccc(Nc2ccc(-c3ccccc3)nn2)c1` [Compound 34, N-[(oxan-4-yl)methyl]-3-[(6-phenylpyridazin-3-yl)amino]benzamide], the inhibition at 1 µM (human ANO6 [1]) was < 30% and the inhibition at 30 µM (human ANO6 [1]) was ≥ 60%.

`COc1ccc(-c2ccc(Nc3cccc(C(=O)NCc4ccc(C)o4)c3)nn2)cc1` [Compound 13, 3-{[6-(4-methoxyphenyl)pyridazin-3-yl]amino}-N-[(5-methylfuran-2-yl)methyl]benzamide] was tested, and the inhibition at 1 µM (human ANO6 [1]) was < 30% and the inhibition at 30 µM (human ANO6 [1]) was ≥ 60%.

For `COc1cc(F)ccc1CNC(=O)c1cccc(Nc2ccc(-c3cccc(F)c3)nn2)c1` [Compound 229, N-(4-fluoro-2-methoxybenzyl)-3-((6-(3-fluorophenyl)pyridazin-3-yl)amino)benzamide], the inhibition at 0.1 µM (human ANO6 [2]) was < 30% and the inhibition at 1 µM (human ANO6 [2]) was < 30%.

`CN1CCC(C2CC2NC(=O)c2cccc(Nc3ccc(-c4cccc(F)c4)cn3)c2)CC1` (stereo not drawn) [Compound 144, 3-((5-(3-fluorophenyl)pyridin-2-yl)amino)-N-(2-(1-methylpiperidin-4-yl)cyclopropyl)benzamide] was tested, and the inhibition at 0.1 µM (human ANO6 [2]) was < 30% and the inhibition at 1 µM (human ANO6 [2]) was < 30%.

With `O=C(NCc1ccc(C(F)(F)F)cc1)c1cccc(Nc2ncc(-c3cccc(F)c3)cn2)c1` [Compound 202, 3-((5-(3-fluorophenyl)pyrimidin-2-yl)amino)-N-(4-(trifluoromethyl)benzyl)benzamide] the inhibition at 0.1 µM (human ANO6 [2]) was < 30% and the inhibition at 1 µM (human ANO6 [2]) was 30 to 60%.

For `O=C(NCc1ccc(F)c(F)c1F)c1cccc(Nc2ncc(-c3cccc(F)c3)cn2)c1` [Compound 217, 3-((5-(3-fluorophenyl)pyrimidin-2-yl)amino)-N-(2,3,4-trifluorobenzyl)benzamide], the inhibition at 0.1 µM (human ANO6 [2]) was < 30% and the inhibition at 1 µM (human ANO6 [2]) was 30 to 60%.

In the case of `CNc1cccc(NC(=O)c2cccc(Nc3ncc(-c4cccc(F)c4)cn3)c2)c1` [Compound 177, 3-((5-(3-fluorophenyl)pyrimidin-2-yl)amino)-N-(3-(methylamino)phenyl)benzamide], the inhibition at 0.1 µM (human ANO6 [2]) was < 30%.

For `O=C(Nc1cccc(F)c1)c1cccc(Nc2nnc(-c3ccccc3)o2)c1` [Compound 158, N-(3-fluorophenyl)-3-((5-phenyl-1,3,4-oxadiazol-2-yl)amino)benzamide], the inhibition at 0.1 µM (human ANO6 [2]) was < 30% and the inhibition at 1 µM (human ANO6 [2]) was < 30%.

With `Cc1c(C2CC2NC(=O)c2cccc(Nc3ncc(-c4ccccc4)cn3)c2)cnn1C` (stereo not drawn) [Compound 152, N-(2-(1,5-dimethyl-1H-pyrazol-4-yl)cyclopropyl)-3-((5-phenylpyrimidin-2-yl)amino)benzamide] the inhibition at 0.1 µM (human ANO6 [2]) was < 30% and the inhibition at 1 µM (human ANO6 [2]) was < 30%.

For `O=C(Nc1cccc(F)c1)c1cccc(Nc2ncc(-c3cccc(F)c3)cn2)c1` [Compound A91], the inhibition at 0.1 µM (human ANO6 [2]) was < 30% and the inhibition at 1 µM (human ANO6 [2]) was ≥ 60%.

For `CCN1CCN(c2cc(F)ccc2CNC(=O)c2cccc(Nc3ccc(-c4ccccc4)nn3)c2)CC1` [Compound 220, N-(2-(4-ethylpiperazin-1-yl)-4-fluorobenzyl)-3-((6-phenylpyridazin-3-yl)amino)benzamide], the inhibition at 0.1 µM (human ANO6 [2]) was 30 to 60%.

`O=C(NCc1c(F)cc(F)cc1F)c1cccc(Nc2ncc(-c3cccc(F)c3)cn2)c1` [Compound 205, 3-((5-(3-fluorophenyl)pyrimidin-2-yl)amino)-N-(2,4,6-trifluorobenzyl)benzamide] was tested, and the inhibition at 0.1 µM (human ANO6 [2]) was < 30% and the inhibition at 1 µM (human ANO6 [2]) was 30 to 60%.

In the case of `O=C(NCc1ccccc1F)c1cccc(Nc2ncc(-c3cccc(F)c3)cn2)c1` [Compound 203, N-(2-fluorobenzyl)-3-((5-(3-fluorophenyl)pyrimidin-2-yl)amino)benzamide], the inhibition at 0.1 µM (human ANO6 [2]) was < 30% and the inhibition at 1 µM (human ANO6 [2]) was < 30%.

With `Cc1ccc(CCNC(=O)c2cccc(Nc3ncc(-c4cccc(F)c4)cn3)c2)o1` [Compound 151, 3-((5-(3-fluorophenyl)pyrimidin-2-yl)amino)-N-(2-(5-methylfuran-2-yl)ethyl)benzamide] the inhibition at 0.1 µM (human ANO6 [2]) was < 30% and the inhibition at 1 µM (human ANO6 [2]) was < 30%.

For `O=C(NCCc1ccccc1C(=O)O)c1cccc(Nc2ncc(-c3cccc(F)c3)cn2)c1` [Compound 132, 2-(2-(3-((5-(3-fluorophenyl)pyrimidin-2-yl)amino)benzamido)ethyl)benzoic acid], the inhibition at 0.1 µM (human ANO6 [2]) was < 30% and the inhibition at 1 µM (human ANO6 [2]) was < 30%.

`O=C(N[C@@H]1C[C@H]1c1ccccc1)c1ccnc(Nc2ccc(-c3ccccc3)cn2)c1` [Compound 149, N-((1R,2S)-2-phenylcyclopropyl)-2-((5-phenylpyridin-2-yl)amino)isonicotinamide] was tested, and the inhibition at 0.1 µM (human ANO6 [2]) was < 30% and the inhibition at 1 µM (human ANO6 [2]) was ≥ 60%.

`Nc1ccc(NC(=O)c2cccc(Nc3ccc(-c4cccc(F)c4)cn3)c2)cc1` [Compound 146, N-(4-aminophenyl)-3-((5-(3-fluorophenyl)pyridin-2-yl)amino)benzamide] was tested, and the inhibition at 0.1 µM (human ANO6 [2]) was < 30% and the inhibition at 1 µM (human ANO6 [2]) was 30 to 60%.
